Test results: paper PMC3195894 (FEBS letters, 2011)

Assays:
recombinant human RSK2 = recombinant human RSK2 (Homo sapiens, UniProt P51812); test: IMAP fluorescence polarization kinase inhibition assay, RSK2; type: biochemical; conditions: read-out: IC50 RSK2; single assay; head-to-head testing, single batch of enzyme
recombinant human Chk1 = biological target: T1, recombinant human Chk1 (Homo sapiens, UniProt O14757); test: IMAP fluorescence polarization kinase inhibition assay, Chk1; type: biochemical; conditions: read-out: IC50 Chk1; single assay; head-to-head testing, single batch of enzyme
T1 sequence (O14757 1-476): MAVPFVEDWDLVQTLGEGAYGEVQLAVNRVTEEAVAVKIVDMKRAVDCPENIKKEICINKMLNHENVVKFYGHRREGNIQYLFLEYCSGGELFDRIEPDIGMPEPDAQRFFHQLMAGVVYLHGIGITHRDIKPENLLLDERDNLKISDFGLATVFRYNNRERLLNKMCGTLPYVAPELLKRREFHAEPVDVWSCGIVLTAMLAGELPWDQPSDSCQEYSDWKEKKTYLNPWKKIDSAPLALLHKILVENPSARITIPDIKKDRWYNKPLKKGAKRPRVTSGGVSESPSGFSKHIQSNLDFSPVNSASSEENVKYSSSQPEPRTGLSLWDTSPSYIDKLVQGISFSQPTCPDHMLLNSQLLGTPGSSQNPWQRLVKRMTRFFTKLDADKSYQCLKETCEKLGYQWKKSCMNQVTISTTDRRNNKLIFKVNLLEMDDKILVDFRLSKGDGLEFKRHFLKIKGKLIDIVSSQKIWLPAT

Sequence of recombinant human RSK2 (P51812 whole entry): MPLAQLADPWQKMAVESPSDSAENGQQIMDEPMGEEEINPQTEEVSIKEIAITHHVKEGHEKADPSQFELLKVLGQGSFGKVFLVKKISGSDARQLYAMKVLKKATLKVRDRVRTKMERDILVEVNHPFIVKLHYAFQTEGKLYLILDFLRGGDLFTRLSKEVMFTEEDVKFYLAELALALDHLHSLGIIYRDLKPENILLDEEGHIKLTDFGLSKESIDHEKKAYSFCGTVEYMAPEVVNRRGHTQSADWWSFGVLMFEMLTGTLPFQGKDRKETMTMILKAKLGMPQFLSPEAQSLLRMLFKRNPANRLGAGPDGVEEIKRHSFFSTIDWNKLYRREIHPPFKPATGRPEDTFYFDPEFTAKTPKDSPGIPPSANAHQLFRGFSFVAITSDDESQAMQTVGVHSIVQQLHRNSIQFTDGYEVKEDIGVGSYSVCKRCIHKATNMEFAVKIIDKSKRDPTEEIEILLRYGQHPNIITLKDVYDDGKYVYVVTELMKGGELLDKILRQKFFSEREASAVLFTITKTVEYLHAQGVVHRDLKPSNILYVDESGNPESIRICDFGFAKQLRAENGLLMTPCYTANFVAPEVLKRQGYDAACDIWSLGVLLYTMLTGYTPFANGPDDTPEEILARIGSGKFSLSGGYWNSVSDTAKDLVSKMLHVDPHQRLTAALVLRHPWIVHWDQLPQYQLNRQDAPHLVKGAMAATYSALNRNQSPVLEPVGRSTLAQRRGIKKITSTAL

Compound: CC(=NNC(=N)N)c1ccc(NC(=O)c2cc3cccc([N+](=O)[O-])c3[nH]2)cc1 [PV1019, 7-nitro-1H-indole-2-carboxylic acid {4-[1-(guanidinohydrazone)-ethyl]-phenyl}-amide]
- IC50 (recombinant human RSK2): 39 µM
- IC50 (recombinant human Chk1): 8.1 µM
